Source: patent publication US20230322724A1, “HETEROCYCLIC COMPOUNDS AS CBP/EP300 BROMODOMAIN INHIBITORS” (AURIGENE ONCOLOGY LIMITED, priority 2020, published 2023)

Tests used:
Format in all cases: binding
[1] = target: T1, recombinant P300 bromodomain (Homo sapiens, UniProt Q09472); test: P300 TR-FRET displacement assay; settings: dose-response, read-out: IC50 (group A, B, C)
T1 construct: recombinant P300 bromodomain obtained from BPS Bioscience, USA; purchased BPS Bioscience, USA
T1 sequence (Q09472 1049-1156 limits assumed): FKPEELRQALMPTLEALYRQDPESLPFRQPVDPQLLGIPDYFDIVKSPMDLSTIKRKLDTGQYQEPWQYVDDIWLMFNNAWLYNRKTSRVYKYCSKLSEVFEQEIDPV
Description: The potency of compounds to inhibit P300 enzyme was tested in a TR-FRET displacement assay using recombinant P300 bromodomain obtained from BPS Bioscience, USA. The assay buffer was 50 mM HEPES (pH 7.5), 50 mM NaCl, 0.008% Brij 35, 0.01% BSA, 1 mM TCEP. 50 nM of P300 & 500 nM of Biotinylated ligand was incubated at room temperature for 30 minutes, the reaction was initiated by adding the pre-incubated enzyme ligand mixture to the test compounds. After 60 min incubation, the reaction was stopped by the addition of stop mix containing 1 nM of LANCE Europium-anti-6xHis antibody (Perkin Elmer, USA) and 40 nM of Sure Light Allophycocyanin-Streptavidin (Perkin Elmer, USA). Fluorescence emission of the samples at 665 and 615 nm were measured at an excitation of 340 nm and their ratio was plotted against the compound concentrations to generate dose-response curve.
Selected compounds of the present invention were screened in the above-mentioned assay procedures and IC50 values were determined by fitting the dose-response data to sigmoidal curve fitting equation using Graph pad prism software V7.

[2] = target: T2, recombinant BRD4 FL bromodomain (Homo sapiens, UniProt O60885); test: BRD4 FL TR-FRET displacement assay; settings: BRD4 FL; for IC50: dose-response, read-out: IC50 (group A, B, C); for inhibition at 10 µM: compound at 10 μM, read-out: % Inhibition (10 μM)
T2 construct: fused on or other part: 6xHis tag, inferred from detection with Mab ANTI 6HIS-XL665
How it was run: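 Recombinant BRD4 FL (10 nM) pre-incubated 30 min at room temperature with 300 nM biotinylated acetyl-histone H4 (K5/8/12/16) in 50 mM HEPES pH 7.5, 50 mM NaCl, 500 μM CHAPS, then added to compounds for 30 min. Stopped with Eu-streptavidin/anti-6His-XL665 in KF; 665/615 nm ratio fitted sigmoidally for IC50.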

[3] = target: T3, recombinant CREBBP bromodomain (Homo sapiens, UniProt Q92793); test: CBP TR-FRET displacement assay; settings: for inhibition at 10 µM: compound at 10 μM; for IC50: dose-response, read-out: IC50 (group A, B, C)
T3 construct: recombinant CREBBP bromodomain obtained from BPS Bioscience, USA; purchased BPS Bioscience, USA
T3 sequence (Q92793 1085-1192 limits assumed): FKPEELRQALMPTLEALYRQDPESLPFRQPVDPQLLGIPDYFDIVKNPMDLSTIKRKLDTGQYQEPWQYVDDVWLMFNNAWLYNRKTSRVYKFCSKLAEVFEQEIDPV
How it was run: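 CREBBP bromodomain (50 nM) preincubated 30 min at room temperature with 500 nM biotinylated ligand in HEPES pH 7.5 buffer with TCEP, then 60 min with compound. Eu-anti-His/APC-streptavidin TR-FRET 665/615 nm ratio read; IC50 from sigmoidal dose-response fit.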

Compound `Cc1cc2c(N3CCN(C)c4cc(-c5cnn(C)c5)ccc43)cccc2[nH]c1=O` [Example 6] has an IC50 [1] greater than 50 µM, an IC50 [2] of 2.01 to 5 µM and an inhibition at 10 µM [3] of 100%. The IC50 [3] was greater than 0.01 µM.
Work on `COc1cc(N2CCN(C)c3cc(-c4cnn(C)c4)c(C#N)cc32)c2cc(C)c(=O)[nH]c2c1` [Example 7] yielded an IC50 [1] greater than 50 µM, an inhibition at 10 µM [2] of 77% and an inhibition at 10 µM [3] of 90%. It also gave an IC50 [3] of less than 0.05 µM.
In the case of `Cc1cc2c(N3CCCc4cc(-c5cnn(C)c5)c(C(F)F)cc43)cncc2n(C)c1=O` [Example 180], the IC50 [1] is reported as less than 0.025 µM, the IC50 [2] is reported as 2.01 to 5 µM and the IC50 [3] is reported as 0.051 to 0.1 µM.
`COc1cc(N2CCN(C)c3cc(N4CCOCC4)c(C#N)cc32)c2cc(C)c(=O)n(C)c2c1` [Example 18] was tested, and the IC50 [1] was 0.025 to 0.05 µM and the IC50 [3] was less than 0.05 µM.
`COc1cc(N2CCN(C)c3cc(C4=CCN(C)CC4)c(C#N)cc32)c2cc(C)c(=O)n(C)c2c1` [Example 17] showed an IC50 [1] greater than 50 µM and an IC50 [3] of less than 0.05 µM.
With `Cc1cc2c(N3CCN(C)c4cc(-c5cnn(C)c5)c(C#N)cc43)cc(OC3COC3)cc2n(C)c1=O` [Example 40] the IC50 [1] was 0.025 to 0.05 µM and the IC50 [3] was less than 0.05 µM.
With `Cc1cc2c(N3CCCc4cc(-c5cnn(C)c5)c(C(F)F)cc43)nc(N3C[C@@H](O)[C@H](O)C3)cc2n(C)c1=O` [Example 215] the IC50 [1] was less than 0.025 µM and the IC50 [3] was less than 0.05 µM.
`Cc1cc2c(N3CCCc4cc(-c5cnn(C)c5)c(C(F)F)cc43)nc(N3CC4(COC4)C3)cc2n(C)c1=O` [Example 224] showed an IC50 [1] greater than 50 µM and an IC50 [3] of less than 0.05 µM.
Work on `COc1cc(N2CCN(C)c3cc(N4CCN(C(C)=O)CC4)c(C#N)cc32)c2cc(C)c(=O)n(C)c2c1` [Example 23] yielded an IC50 [1] of less than 0.025 µM and an IC50 [3] of less than 0.05 µM.
Work on `Cc1cc2c(N3CCN(C)c4cc(-c5cnn(C)c5)c(C#N)cc43)cc(OCCO)cc2n(C)c1=O` [Example 60, 4-(7-(2-Hydroxyethoxy)-1,3-dimethyl-2-oxo-1,2-dihydroquinolin-5-yl)-1-methyl-7-(1-methyl-1H-pyrazol-4-yl)-1,2,3,4-tetrahydroquinoxaline-6-carbonitrile] yielded an IC50 [1] of less than 0.025 µM and an IC50 [3] of less than 0.05 µM.
For `COc1cc(N2CCN(C)c3cc(-n4cc(C)cn4)c(C#N)cc32)c2cc(C)c(=O)n(C)c2c1` [Example 10], the IC50 [1] was 0.025 to 0.05 µM and the IC50 [3] was less than 0.05 µM.
Compound `Cc1cc2c(N3CCN(C)c4cc(-c5cnn(C)c5)c(C#N)cc43)cc(OCCN(C)C)cc2n(C)c1=O` [Example 39] has an IC50 [1] of less than 0.025 µM and an IC50 [3] of less than 0.05 µM.
Compound `Cc1cc2c(N3CCN(C)c4cc(-c5cnn(C)c5)c(C#N)cc43)cc(OCC3CCCN(C)C3)cc2n(C)c1=O` (single isomer, unassigned) [Example 247, 4-(1,3-Dimethyl-7-((1-methylpiperidin-3-yl)methoxy)-2-oxo-1,2-dihydroquinolin-5-yl)-1-methyl-7-(1-methyl-1H-pyrazol-4-yl)-1,2,3,4-tetrahydroquinoxaline-6-carbonitrile] has an IC50 [1] of less than 0.025 µM, an inhibition at 10 µM [3] of 95% and an IC50 [3] of less than 0.05 µM.
With `Cc1cc2c(N3CCN(C)c4cc(-c5cnn(C)c5)c(C#N)cc43)cc(OCCN3CCOCC3)cc2n(C)c1=O` [Example 36] the IC50 [1] was less than 0.025 µM, the inhibition at 10 µM [3] was 100% and the IC50 [3] was less than 0.05 µM.
In the case of `Cc1cc2c(N3CCN(C)c4cc(-c5cnn(C)c5)c(C#N)cc43)cccc2n(C)c1=O` [Example 42], the IC50 [1] is reported as 0.025 to 0.05 µM, the inhibition at 10 µM [2] is reported as 81% and the inhibition at 10 µM [3] is reported as 96%. It also gave an IC50 [3] of less than 0.05 µM.
With `COc1cc(N2CCN(C)c3cc(F)c(S(N)(=O)=O)cc32)c2cc(C)c(=O)n(C)c2c1` [Example 86] the IC50 [1] was 0.025 to 0.05 µM, the IC50 [2] was 2.01 to 5 µM and the IC50 [3] was less than 0.05 µM.
`CNC(=O)c1ccc(-c2cc3c(cc2C(F)F)N(c2cccc4c2cc(C)c(=O)n4C)CCC3)cn1` [Example 176] showed an IC50 [1] of less than 0.025 µM and an IC50 [3] of less than 0.05 µM.
Work on `CNC(=O)c1cc2c(cc1C#N)N(c1cc(OC)cc3c1cc(C)c(=O)n3C)CCN2C` [Example 69, 7-cyano-1-(7-methoxy-1,3-dimethyl-2-oxo-1,2-dihydroquinolin-5-yl)-N,4-dimethyl-1,2,3,4-tetrahydroquinoxaline-6-carboxamide] yielded an IC50 [1] of less than 0.025 µM, an inhibition at 10 µM [2] of 39% and an IC50 [3] of less than 0.05 µM.
`Cc1cc2c(N3CCN(C)c4cc(-c5cnn(C)c5)c(C#N)cc43)nccc2[nH]c1=O` [Example 54] showed an IC50 [1] greater than 50 µM, an inhibition at 10 µM [3] of 91% and an IC50 [3] greater than 0.01 µM.
Work on `Cc1cc2c(N3CCCc4cc(-c5cnn(C)c5)c(C(F)F)cc43)nc(C3CCOCC3)cc2n(C)c1=O` [Example 242, 5-(7-(Difluoromethyl)-6-(1-methyl-1H-pyrazol-4-yl)-3,4-dihydroquinolin-1(2H)-yl)-1,3-dimethyl-7-(tetrahydro-2H-pyran-4-yl)-1,6-naphthyridin-2(1H)-one] yielded an IC50 [1] of less than 0.025 µM and an IC50 [3] of less than 0.05 µM.
`Cc1cc2c(N3CCCc4cc(-c5cnn(C)c5)c(C(F)F)cc43)nc(N3CC[C@@H](O)C3)cc2n(C)c1=O` [Example 209] showed an IC50 [1] of less than 0.025 µM and an IC50 [3] of less than 0.05 µM.
`COc1cc(N2CCN(C)c3cc(-c4ccnn4C)c(C#N)cc32)c2cc(C)c(=O)n(C)c2c1` [Example 9] showed an IC50 [1] of less than 0.025 µM and an IC50 [3] of less than 0.05 µM.
`COc1cc(N2CCN(C)c3cc(-c4cnn(C)c4)c(C#N)cc32)c2cc(C)c(=O)n(C)c2c1` [Example 1, 4-(7-Methoxy-1,3-dimethyl-2-oxo-1,2-dihydroquinolin-5-yl)-1-methyl-7-(1-methyl-1H-pyrazol-4-yl)-1,2,3,4-tetrahydroquinoxaline-6-carbonitrile] gave an IC50 [1] of less than 0.025 µM, an inhibition at 10 µM [3] of 99% and an IC50 [3] of less than 0.05 µM.
`COc1cc(N2CC(C)N(C)c3cc(-c4cnn(C)c4)c(C#N)cc32)c2cc(C)c(=O)n(C)c2c1` (stereo not drawn) [Example 13] was tested, and the IC50 [1] was less than 0.025 µM and the IC50 [3] was less than 0.05 µM.
In the case of `COc1cc(N2CCN(C)c3cc(C(=O)O)c(C#N)cc32)c2cc(C)c(=O)n(C)c2c1` [Example 68, 7-cyano-1-(7-methoxy-1,3-dimethyl-2-oxo-1,2-dihydroquinolin-5-yl)-4-methyl-1,2,3,4-tetrahydroquinoxaline-6-carboxylic acid], the IC50 [1] is reported as 0.025 to 0.05 µM, the IC50 [2] is reported as 2.01 to 5 µM and the IC50 [3] is reported as less than 0.05 µM.
For `COc1cc(N2CCN(C)c3ccc(S(N)(=O)=O)cc32)c2cc(C)c(=O)n(C)c2c1` [Example 94], the IC50 [1] was less than 0.025 µM, the IC50 [2] was 2.01 to 5 µM and the IC50 [3] was less than 0.05 µM.
For `Cc1cc2c(N3CCCc4cc(-c5cnn(C)c5)c(C(F)F)cc43)nc(N3CCOCC3)cc2n(C)c1=O` [Example 234, 5-(7-(Difluoromethyl)-6-(1-methyl-1H-pyrazol-4-yl)-3,4-dihydroquinolin-1(2H)-yl)-1,3-dimethyl-7-morpholino-1,6-naphthyridin-2(1H)-one], the IC50 [1] was less than 0.025 µM and the IC50 [3] was less than 0.05 µM.
`CNC(=O)C1CCN(c2cc3c(cc(C)c(=O)n3C)c(N3CCCc4cc(-c5cnn(C)c5)c(C(F)F)cc43)n2)C1` (stereo not drawn) [Example 201, 1-(5-(7-(Difluoromethyl)-6-(1-methyl-1H-pyrazol-4-yl)-3,4-dihydroquinolin-1(2H)-yl)-1,3-dimethyl-2-oxo-1,2-dihydro-1,6-naphthyridin-7-yl)-N-methylpyrrolidine-3-carboxamide] showed an IC50 [1] of less than 0.025 µM and an IC50 [3] of less than 0.05 µM.
`COCCOc1cc(N2CCN(C)c3cc(-c4cnn(C)c4)c(C#N)cc32)c2cc(C)c(=O)n(C)c2c1` [Example 37] showed an IC50 [1] of less than 0.025 µM, an inhibition at 10 µM [3] of 100% and an IC50 [3] of less than 0.05 µM.
`CN1CCN(c2cccc3c2cc(N)c(=O)n3C)c2cc(C#N)c(-c3cnn(C)c3)cc21` [Example 77, 4-(3-Amino-1-methyl-2-oxo-1,2-dihydroquinolin-5-yl)-1-methyl-7-(1-methyl-1H-pyrazol-4-yl)-1,2,3,4-tetrahydroquinoxaline-6-carbonitrile] gave an IC50 [1] greater than 50 µM, an IC50 [2] of 2.01 to 5 µM and an IC50 [3] greater than 0.01 µM.
Compound `COc1cc(N2CCN(C)c3cc(N4CCN(C)CC4)c(C#N)cc32)c2cc(C)c(=O)n(C)c2c1` [Example 19] has an IC50 [1] of 0.025 to 0.05 µM and an IC50 [3] of less than 0.05 µM.
For `Cc1cc2c(N3CCN(C)c4cc(-c5cnn(C)c5)ccc43)cc(OCC(=O)O)cc2n(C)c1=O` [Example 72, 2-((1,3-Dimethyl-5-(4-methyl-6-(1-methyl-1H-pyrazol-4-yl)-3,4-dihydroquinoxalin-1(2H)-yl)-2-oxo-1,2-dihydroquinolin-7-yl)oxy)acetic acid], the IC50 [1] was less than 0.025 µM and the IC50 [3] was less than 0.05 µM.
